From ChEMBL document CHEMBL1201862, “PubChem BioAssay data set” (2004)
Active and inactive are the calls of the source.

What was measured:
[1] = Luminescence Cell-Based Dose Retest to Confirm Inhibitors of Cancer Stem Cells. [Related pubchem assays (depositor defined):AID2717, AID2721]; assay type: functional; conditions: Homo sapiens
[2] = cytotoxicity in HMLE control line with eGFP shRNA, dose response, counter-screen for HMLE_sh_ECad selective toxicity project, cell-based, HMLE_sh_eGFP, luminescence (AID 463074); assay type: functional, Homo sapiens;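 also: HMLE human mammary epithelial cells expressing control shRNA against eGFP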
[3] = biological target: T1, High affinity choline transporter 1 (Homo sapiens, UniProt Q9GZV3); assay: CHT inhibitors, dose response, cell-based, 5-point CRC, membrane potential dye (AID 504840); assay type: functional
T1 sequence (Q9GZV3 whole entry): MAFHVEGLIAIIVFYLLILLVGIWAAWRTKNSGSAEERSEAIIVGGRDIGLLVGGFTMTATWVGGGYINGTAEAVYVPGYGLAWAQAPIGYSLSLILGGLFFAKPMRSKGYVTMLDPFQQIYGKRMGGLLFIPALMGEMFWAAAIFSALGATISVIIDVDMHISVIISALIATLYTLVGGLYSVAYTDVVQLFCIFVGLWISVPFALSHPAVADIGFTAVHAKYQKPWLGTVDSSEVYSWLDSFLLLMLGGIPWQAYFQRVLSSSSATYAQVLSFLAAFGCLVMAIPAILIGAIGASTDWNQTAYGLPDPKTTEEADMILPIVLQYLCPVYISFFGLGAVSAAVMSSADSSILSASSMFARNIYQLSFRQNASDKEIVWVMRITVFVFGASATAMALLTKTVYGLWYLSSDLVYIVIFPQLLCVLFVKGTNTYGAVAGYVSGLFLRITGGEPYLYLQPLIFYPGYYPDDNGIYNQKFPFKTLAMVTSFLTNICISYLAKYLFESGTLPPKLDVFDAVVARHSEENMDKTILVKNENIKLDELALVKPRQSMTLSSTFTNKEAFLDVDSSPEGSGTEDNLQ

[4] = NIH-3T3 fibroblast cytotoxicity, dose response, cytotoxicity control, cell-based, fluorescence, Alamar Blue, secondary assay (AID 2327); assay type: functional;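 also: NIH-3T3 mouse fibroblasts cultured with fluconazole at 8 µg/mL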
[5] = tested on: Streptococcus sp. 'group A'; assay: growth inhibition of control SK(-) GAS strain, dose response, counter-screen for streptokinase expression inhibitor project, luminescence, kanamycin, BacTiterGlo, confirmation (AID 1900); assay type: functional, organism-based
[6] = C. albicans growth with fluconazole, confirmation, fluorescence, retest (AID 2467); assay type: functional, cell-based
[7] = biological target: T2, Estrogen receptor (Homo sapiens, UniProt P03372);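 also: potency for inhibiting coactivator peptide recruitment to the receptor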
T2 sequence (P03372 whole entry): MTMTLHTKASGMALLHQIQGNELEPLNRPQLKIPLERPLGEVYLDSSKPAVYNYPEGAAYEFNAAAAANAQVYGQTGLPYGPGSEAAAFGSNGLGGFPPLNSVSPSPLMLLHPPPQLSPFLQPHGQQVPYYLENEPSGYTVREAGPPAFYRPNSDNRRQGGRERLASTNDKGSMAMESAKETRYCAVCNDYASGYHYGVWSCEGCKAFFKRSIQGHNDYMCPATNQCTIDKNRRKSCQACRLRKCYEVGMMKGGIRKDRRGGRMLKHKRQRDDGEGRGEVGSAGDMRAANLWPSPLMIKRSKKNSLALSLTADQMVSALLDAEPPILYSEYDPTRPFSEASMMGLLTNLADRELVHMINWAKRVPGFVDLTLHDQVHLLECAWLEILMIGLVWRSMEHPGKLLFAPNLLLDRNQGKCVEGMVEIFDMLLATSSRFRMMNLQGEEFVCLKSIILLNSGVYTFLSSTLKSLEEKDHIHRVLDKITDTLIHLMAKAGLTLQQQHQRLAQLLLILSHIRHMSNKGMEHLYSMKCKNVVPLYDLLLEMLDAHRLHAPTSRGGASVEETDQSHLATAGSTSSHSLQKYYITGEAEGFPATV

[8] = tested on: Streptococcus; assay: Group A Streptococcus viability loss, dose response, counter-screen for streptokinase expression inhibitor project, luminescence, BacTiterGlo (AID 1915); assay type: functional, organism-based;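 also: potency for reduction of bacterial viability or growth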
[9] = THP-1 cell cytotoxicity, dose response, cytotoxicity control for non-replicating M. tuberculosis project (AID 489025); assay type: functional
[10] = HepG2 cell cytotoxicity, dose response, cytotoxicity control for non-replicating M. tuberculosis project (AID 489018); assay type: functional; conditions: Mycobacterium tuberculosis
[11] = Vero E6 cell cytotoxicity, dose response, cytotoxicity control for non-replicating M. tuberculosis project, secondary assay (AID 492998); assay type: functional, VeroE6; conditions: Vero C1008
[12] = cells; assay type: functional
[13] = biological target: Dual specificity protein phosphatase 3 (Homo sapiens, UniProt P51452); assay: SAR VHR1 Fluorescent Assay for In Vitro dose response studies Set 3. [Related pubchem assays (depositor defined):AID1654, AID1661, AID1878]; assay type: functional
Chain of Dual specificity protein phosphatase 3 (P51452 whole entry): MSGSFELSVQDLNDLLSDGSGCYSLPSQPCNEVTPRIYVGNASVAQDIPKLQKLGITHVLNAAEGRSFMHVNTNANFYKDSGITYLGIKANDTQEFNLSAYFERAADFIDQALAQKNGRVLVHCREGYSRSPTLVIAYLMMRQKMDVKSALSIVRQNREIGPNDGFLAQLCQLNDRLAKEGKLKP

[14] = tested on: BJ; assay: cytotoxicity toward BJ-TERT fibroblasts, dose response, cell-based, RAS-independent, luminescence (AID 1933); assay type: functional; conditions: Homo sapiens
[15] = biological target: T3, Streptokinase A (Streptococcus pyogenes serotype M1, UniProt P10520); assay: S. pyogenes streptokinase expression inhibitors, potency, dose response, plasminogen activation absorbance, OD405 (AID 1914); assay type: functional, Streptococcus pyogenes M1 GAS;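 also: secreted streptokinase activity via plasminogen activation per viability signal from cell pellet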
T3 sequence (P10520 whole entry): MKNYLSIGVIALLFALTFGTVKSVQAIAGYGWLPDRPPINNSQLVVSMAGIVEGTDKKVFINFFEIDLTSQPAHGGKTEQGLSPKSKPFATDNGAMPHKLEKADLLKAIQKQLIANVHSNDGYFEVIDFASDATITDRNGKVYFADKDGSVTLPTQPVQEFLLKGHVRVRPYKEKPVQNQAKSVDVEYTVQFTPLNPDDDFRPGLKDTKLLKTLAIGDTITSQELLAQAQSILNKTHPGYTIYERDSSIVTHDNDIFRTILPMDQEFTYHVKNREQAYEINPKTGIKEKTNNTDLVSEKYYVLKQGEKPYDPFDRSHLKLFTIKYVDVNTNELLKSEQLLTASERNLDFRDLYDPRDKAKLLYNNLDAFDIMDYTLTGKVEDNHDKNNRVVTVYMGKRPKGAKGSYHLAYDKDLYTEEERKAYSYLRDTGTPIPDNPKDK

[16] = tested on: BJ; assay: cells; assay type: functional, cell-based; conditions: Homo sapiens
[17] = tested on: BJ; assay: cytotoxicity toward BJ-TERT-LT-ST fibroblasts, dose response, cell-based, RAS-independent, luminescence (AID 1935); assay type: functional; conditions: Homo sapiens;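 also: BJ fibroblasts immortalized with TERT plus LT and ST oncogenes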
[18] = cytotoxicity toward DRD oncogenic fibroblasts, dose response, cell-based, non-viral oncogenic, luminescence (AID 1934); assay type: functional; conditions: Homo sapiens
[19] = tested on: Jurkat; assay: antigen receptor-induced NF-kB inhibitors, dose response, Jurkat, luciferase reporter, luminescence, B- and T-cell (AID 489004); assay type: functional, cell-based; conditions: Homo sapiens;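 also: NF-kB luciferase reporter Jurkat cells stimulated with PMA plus ionomycin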
[20] = cytotoxicity in HEK-293T NF-kB-Luc cells, dose response, cytotoxicity control for B/T-cell NF-kB inhibitor project, cell-based, uHTS hits (AID 489019); assay type: functional;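 also: IC50 reflects cytotoxicity as loss of cell viability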
[21] = biological target: Heat shock protein HSP 90-alpha (Homo sapiens, UniProt P07900); assay type: functional, organism-based
[22] = tested on: BJ; assay: cytotoxicity toward Ras-transformed BJeLR fibroblasts, dose response, cell-based, alamar blue fluorescence, cherrypicked samples (AID 2631); assay type: functional; conditions: Homo sapiens;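 also: confirmatory dose-response assay in RAS-dependent BJ fibroblasts engineered with TERT, LT and ST, with cytotoxicity read by fluorescence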
[23] = tested on: INS1; assay: beta cell apoptosis inhibitors, cytokine rescue, dose response, luminescence, retest (AID 449756); assay type: functional, cell-based; conditions: Rattus norvegicus;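 also: cell death triggered by IL-1 beta plus TNF-alpha plus IFN-gamma mixture; protective hits raise ATP signal compared with cytokine alone wells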
[24] = biological target: Galanin receptor type 3 (Homo sapiens, UniProt O60755); assay: Fluorescence-based cell-based primary high throughput dose response assay to identify antagonists of the Galanin Receptor 3 (GalR3).; assay type: functional
Chain of Galanin receptor type 3 (O60755 whole entry): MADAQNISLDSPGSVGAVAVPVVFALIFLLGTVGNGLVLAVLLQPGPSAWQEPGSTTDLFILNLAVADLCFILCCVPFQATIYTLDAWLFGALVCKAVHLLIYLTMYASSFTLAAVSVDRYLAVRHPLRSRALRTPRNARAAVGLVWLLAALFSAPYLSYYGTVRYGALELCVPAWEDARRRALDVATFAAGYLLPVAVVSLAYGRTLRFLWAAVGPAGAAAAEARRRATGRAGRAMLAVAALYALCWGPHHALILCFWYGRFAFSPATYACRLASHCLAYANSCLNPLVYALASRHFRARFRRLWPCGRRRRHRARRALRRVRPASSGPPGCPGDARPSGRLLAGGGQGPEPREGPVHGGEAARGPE

[25] = cells; assay type: functional, cell-based; conditions: HEK-CNG
[26] = biological target: T4, DNA repair protein RAD52 homolog (Homo sapiens, UniProt P43351); assay type: functional, biochemical
T4 sequence (P43351 whole entry): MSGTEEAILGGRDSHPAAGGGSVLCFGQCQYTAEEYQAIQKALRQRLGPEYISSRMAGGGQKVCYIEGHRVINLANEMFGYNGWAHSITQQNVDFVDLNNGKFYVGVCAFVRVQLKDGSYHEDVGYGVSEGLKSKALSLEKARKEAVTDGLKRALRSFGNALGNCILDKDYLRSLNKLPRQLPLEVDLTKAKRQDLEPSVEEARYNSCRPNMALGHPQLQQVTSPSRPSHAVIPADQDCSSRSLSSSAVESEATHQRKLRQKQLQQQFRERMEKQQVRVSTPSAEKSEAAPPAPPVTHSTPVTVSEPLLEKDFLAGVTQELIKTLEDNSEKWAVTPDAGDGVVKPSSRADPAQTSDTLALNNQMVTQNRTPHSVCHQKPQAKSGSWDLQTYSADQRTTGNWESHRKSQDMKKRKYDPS

[27] = biological target: Paired box protein Pax-8 (Homo sapiens, UniProt Q06710); assay: inhibitors of PAX8-driven TPO luciferase reporter, dose response, RMG-I cells, cherry-pick (AID 687027); assay type: functional, cell-based;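 also: luciferase reporter driven by Pax8 target thyroperoxidase promoter measured by SteadyGlo luminescence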
Chain of Paired box protein Pax-8 (Q06710 whole entry): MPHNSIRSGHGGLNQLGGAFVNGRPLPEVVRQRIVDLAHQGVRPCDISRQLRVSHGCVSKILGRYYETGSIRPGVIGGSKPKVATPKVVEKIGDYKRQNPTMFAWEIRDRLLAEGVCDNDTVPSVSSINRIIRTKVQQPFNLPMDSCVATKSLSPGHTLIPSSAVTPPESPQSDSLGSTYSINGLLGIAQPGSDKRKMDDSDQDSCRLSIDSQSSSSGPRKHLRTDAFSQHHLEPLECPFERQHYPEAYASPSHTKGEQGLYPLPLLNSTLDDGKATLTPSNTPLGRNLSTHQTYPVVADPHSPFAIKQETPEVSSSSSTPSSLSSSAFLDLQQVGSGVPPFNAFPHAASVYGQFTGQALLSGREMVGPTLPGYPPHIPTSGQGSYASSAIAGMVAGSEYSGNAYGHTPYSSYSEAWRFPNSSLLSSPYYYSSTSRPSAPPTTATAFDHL

[28] = tested on: Escherichia coli; assay: microbe, parasite or virus in culture
[29] = tested on: Jurkat; assay: SAR Analysis of small molecule inhibitors of […] specific antigen receptor-induced NF-kB activation in a Jurkat cell line using a luminescence assay - Set 3. [Related pubchem assays (depositor defined):AID435022, AID435025, AID465]; assay type: functional, cell-based; conditions: Homo sapiens
[30] = tested on: HEK293; assay: SAR Analysis of small molecule inhibitors of B-cell specific antigen receptor-induced NF-kB activation in a HEK-293T cell line using a luminescence assay - Set 2. [Related pubchem assays (depositor defined):AID435022, AID435025, AID489021]; assay type: functional, cell-based; conditions: Homo sapiens
[31] = tested on: HEK293; assay: cytotoxicity in HEK293T NF-kB-Luc cells, SAR follow-up, cytotoxicity control for NF-kB activator project, cell-based, resazurin fluorescence (AID 493251); assay type: functional; conditions: Homo sapiens
[32] = biological target: T5, Cytochrome P450 1A2 (Homo sapiens, UniProt P05177);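 also: PubChem cytochrome P450 panel assay, CYP1A2 panel member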
T5 sequence (P05177 whole entry): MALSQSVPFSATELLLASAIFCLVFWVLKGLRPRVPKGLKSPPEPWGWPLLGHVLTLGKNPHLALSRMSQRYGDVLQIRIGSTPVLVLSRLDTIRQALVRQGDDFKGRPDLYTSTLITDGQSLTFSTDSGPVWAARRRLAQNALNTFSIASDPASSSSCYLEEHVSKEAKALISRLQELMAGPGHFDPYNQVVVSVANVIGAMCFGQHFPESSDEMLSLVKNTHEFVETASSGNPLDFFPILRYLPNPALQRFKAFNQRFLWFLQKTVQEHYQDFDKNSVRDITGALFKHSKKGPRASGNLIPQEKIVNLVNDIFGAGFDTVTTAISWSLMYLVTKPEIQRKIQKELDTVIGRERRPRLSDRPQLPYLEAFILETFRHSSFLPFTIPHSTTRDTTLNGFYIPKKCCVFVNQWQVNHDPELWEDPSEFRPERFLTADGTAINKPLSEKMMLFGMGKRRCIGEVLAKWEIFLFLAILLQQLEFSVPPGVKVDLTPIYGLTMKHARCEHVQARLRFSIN

SMILES: COc1ccc(CN(C)c2ncnc3sccc23)c(OC)c1OC
- AC50 [1]: 15.8 µM (active)
- AC50 [2]: 27.4 µM (active)
- IC50 [3]: 13.8 µM (active)

SMILES: COc1cccc2sc(Nc3nnc(-c4ccc(F)cc4)o3)nc12
- EC50 [4]: > 160 µM (inconclusive)
- EC50 [5]: 0.29 µM (active)
- EC50 [6]: 1.72 µM (active)
- IC50 [7]: 25 µM (active)
- EC50 [8]: 2.25 µM (active)
- CC50 [9]: 14.5 µM (active)
- CC50 [10]: > 20 µM (active)
- CC50 [11]: 9.26 µM (active)
- IC50 [12]: 15.3 µM (active)
- IC50 [13]: 7.3 µM (active)

SMILES: CCCCCCCCCCCCn1ccc(=N)cc1
- EC50 [5]: 3.09 µM (active)
- EC50 [14]: 2.72 µM (active)
- EC50 [15]: 17.6 µM (active)
- EC50 [16]: 2.85 µM (inconclusive)
- EC50 [17]: 5.37 µM (inconclusive)
- EC50 [18]: 8.01 µM (active)
- EC50 [8]: 10.3 µM (active)
- IC50 [19]: 0.92 µM (active)
- IC50 [20]: 66.1 µM (inactive)
- AC50 [21]: 10.8 µM (active)
- EC50 [22]: 0.949 µM (active)
- AC50 [23]: 0.293 µM (active)
- IC50 [24]: 1.28 µM (active)
- EC50 [25]: > 29.9 µM (inactive)
- AC50 [26]: 14.8 µM (active)
- AC50 [27]: 3.74 µM (active)

SMILES: COCCNC(=O)c1cnc2ccc(S(=O)(=O)N3CCc4ccccc43)cc2c1O
- EC50 [14]: > 150 µM (not active)
- EC50 [16]: 7.76 µM (active)
- EC50 [17]: > 150 µM (not active)
- EC50 [18]: 11.5 µM (active)
- AC50 [1]: 2.32 µM (active)
- AC50 [28]: 87.7 µM (active)

SMILES: CC(C)(C)c1ccc(-c2noc(CCC(=O)Nc3ccccc3)n2)cc1
- IC50 [29]: 0.473 µM (active)
- IC50 [30]: 0.23 µM (active)
- IC50 [31]: > 80 µM (inactive)

SMILES: N[C@H](C(=O)O)c1nnn[nH]1
- AC50 [32]: inconclusive
